According to US9296759B2, “Amino-oxazine and amino-dihydrothiazine compounds as beta-secretase modulators and methods of use” (AMGEN INC., priority 2011, dated 2016):
Read-outs that look alike come from different tables or passages of the source.

Assays:
[1] = target: BACE 1 (beta secretase enzyme) (Homo sapiens (Human), UniProt P56817); assay: In vitro enzymatic BACE FRET assay; assay type: biochemical; conditions: average IC50
How it was run: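 The enzyme was tested in 0.05 M acetate, pH 4.2, with 10% DMSO final and 100 uM genapol. The reaction was started with 50 nM quenched FRET peptide substrate, incubated one hour and stopped with Tris to neutral pH. Cleavage was read as fluorescence ([…]).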

[2] = test system: Aβ40 in conditioned medium of cells stably expressing Amyloid Precursor Protein (APP); assay: In vitro BACE cell-based assay (HEK cell assay, Aβ40 sandwich ELISA); conditions: Homo sapiens, HEK293; average IC50, Aβ40, 24 h incubation
How it was run: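 Aβ40 in supernatants was measured by time-resolved fluorescence sandwich ELISA using pAb40 capture and biotinylated 6E10 detection, with antibody incubations at 4 °C. Stable APP cells were exposed to compounds for 24 h in a 10-point series (top dose 100 or 10 µM, 0.1% DMSO). IC50 was fitted from the concentration-response.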

Cathepsin D = Cathepsin D (Homo sapiens (Human), UniProt P07339); assay: In vitro enzymatic Cat D (Cathepsin D) FRET assay; assay type: biochemical; conditions: average IC50
How it was run: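 CHO-expressed recombinant enzyme in 0.05 M citrate pH 3.5, 5 mM CHAPS, 10% DMSO final; reaction started with 20 nM quenched-peptide FRET substrate (cleavage site spanned by fluorophore/quencher), 1 h incubation.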

Abeta 40 = assay: In vivo inhibition of beta-secretase: Abeta 40 reduction in CSF and brain of the rat; conditions: 10 mpk, after 4 hrs
Description: In Vivo Inhibition of Beta-Secretase
Several animal models, including mouse, rat, dog, and monkey, may be used to screen for inhibition of beta-secretase activity in vivo following administration of a test compound sample. Animals used in this invention can be wild type, transgenic, or gene knockout animals. For example, the Tg2576 mouse model, prepared and conducted as described in Hsiao et al., 1996, Science 274, 99-102, and other non-transgenic or gene knockout animals are useful to analyze in vivo inhibition of Amyloid beta peptide (Abeta) production in the presence of inhibitory test compounds. Generally, 2 to 18 month old Tg2576 mice, gene knockout mice or non-transgenic animals are administered test compounds formulated in vehicles, such as cyclodextran, phosphate buffers, hydroxypropyl methylcellulose or other suitable vehicles. One to twenty-four hours following the administration of compound, animals are sacrificed, and brains as well as cerebrospinal fluid (CSF) and plasma are removed for analysis of A-beta levels and drug or test compound concentrations (Dovey et al., 2001, Journal of Neurochemistry, 76, 173-181) Beginning at time 0, animals are administered by oral gavage, or other means of delivery such as intravenous injection, an inhibitory test compound of up to 100 mg/kg in a standard, conventional formulation, such as 2% hydroxypropyl methylcellulose, 1% Tween80. A separate group of animals receive 2% hydroxypropyl methylcellulose, 1% Tween80 alone, containing no test compound, and serve as a vehicle-control group. At the end of the test period, animals are sacrificed and brain tissues, plasma or cerebrospinal fluid are collected. Brains are either homogenized in 10 volumes (w/v) of 0.2% diethylamine (DEA) in 50 mM NaCl (Best et al., 2005, Journal of Pharmacology and Experimental Therapeutics, 313, 902-908), or in 10 volumes of 0.5% TritonX-100 in Tris-buffered saline (pH at about 7.6). Homogenates are centrifuged at 355,000 g, 4° C. for 30 minutes. CSF or brain supernatants are then analyzed for the presence of A-beta peptide by specific sandwich ELISA assays based on ECL (Electrochemiluminescence) technology. For example, rat Abeta40 is measured using biotinylated-4G8 (Signet) as a capture antibody and Fab40 (an in-house antibody specific to the C-terminal of Abeta40) as a detection antibody. For example, 4 hours after administration of 30 mg/kg oral dose of the test compound in 2% hydroxypropyl methylcellulose, 1% Tween80 (pH2.2) to 200 g male Sprague Dawley rats, amyloid beta peptide levels are measured for reduction by X % and Y % in cerebrospinal fluid and brain, respectively, when compared to the levels measured in the vehicle-treated rats.
• Oral: 2% HPMC, 1% Tween80, pH 2.2 • IV: 5% EtOH, 45% Propylene glycol in 5% Dextrose
The compounds of the invention may be shown to reduce the formation and/or deposition of amyloid beta peptide in the cerebrospinal fluid (CSF) as well as in the brain of a mouse or rat at either 3 mpk, 10 mpk or 30 mpk (mpk=mg compound per kg weight of the animal) dosing concentrations after 4 hrs.

[3] = Abeta 40, rat CSF, read-out: % reduction of rat CSF levels at 10 pmk
[4] = Abeta 40, rat brain, read-out: % reduction of rat brain levels at 10 mpk

Sequence of BACE 1 (beta secretase enzyme) (P56817 46-501): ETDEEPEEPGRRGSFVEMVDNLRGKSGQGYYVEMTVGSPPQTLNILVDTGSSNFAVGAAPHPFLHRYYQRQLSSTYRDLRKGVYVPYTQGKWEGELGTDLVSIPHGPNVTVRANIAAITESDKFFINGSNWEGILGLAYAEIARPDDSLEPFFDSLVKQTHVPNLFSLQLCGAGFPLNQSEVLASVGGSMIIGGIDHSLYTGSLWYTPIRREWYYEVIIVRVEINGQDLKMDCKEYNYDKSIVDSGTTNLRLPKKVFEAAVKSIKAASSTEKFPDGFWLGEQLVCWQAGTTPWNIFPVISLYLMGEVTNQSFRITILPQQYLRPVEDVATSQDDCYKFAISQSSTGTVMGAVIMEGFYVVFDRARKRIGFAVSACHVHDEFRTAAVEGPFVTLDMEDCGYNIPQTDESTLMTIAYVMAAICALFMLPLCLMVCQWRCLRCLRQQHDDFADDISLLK
Sequence of Cathepsin D (P07339 65-412, species assumed): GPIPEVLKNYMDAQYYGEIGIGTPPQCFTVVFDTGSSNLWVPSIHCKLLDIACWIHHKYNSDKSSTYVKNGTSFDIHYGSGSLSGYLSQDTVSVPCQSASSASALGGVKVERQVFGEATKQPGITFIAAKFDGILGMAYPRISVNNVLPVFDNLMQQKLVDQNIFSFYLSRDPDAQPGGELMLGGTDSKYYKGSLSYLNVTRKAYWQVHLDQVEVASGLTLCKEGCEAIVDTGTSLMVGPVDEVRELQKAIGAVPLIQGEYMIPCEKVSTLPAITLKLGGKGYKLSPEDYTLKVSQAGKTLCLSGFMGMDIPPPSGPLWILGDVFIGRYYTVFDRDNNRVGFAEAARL

Row | IC50 [1] [nM] | IC50 [2] [nM] | IC50 (Cathepsin D) [nM] | Compound | inhibition in vivo at 10 mg/kg (Abeta 40; [3]) [%] | inhibition in vivo at 10 mg/kg (Abeta 40; [4]) [%]
1 | 1.5 | 0.2 | 184000 | COc1ccc(C(=O)Nc2ccc3c(c2)[C@@]2(CCOC(N)=N2)c2cc(C4=CCOCC4)nc(F)c2O3)nc1 [Example 78, N-((5S)-2′-amino-3-(3,6-dihydro-2H-pyran-4-yl)-1-fluoro-5′,6′-dihydrospiro[chromeno[2,3-c]pyridine-5,4′-[1,3]oxazin]-7-yl)-5-methoxy-2-pyridinecarboxamide] | 77 | 70
2 | 1.6 | 0.6 | 400000 | NC1=N[C@@]2(CCO1)c1cc(NC(=O)c3ccc(F)cn3)ccc1Oc1c2cc(-c2cncc(F)c2)nc1F [Example 89, N-((5S)-2′-amino-1-fluoro-3-(5-fluoro-3-pyridinyl)-5′,6′-dihydrospiro[chromeno[2,3-c]pyridine-5,4′-[1,3]oxazin]-7-yl)-5-fluoro-2-pyridinecarboxamide] | 69 | 46
3 | 0.9 | 0.051 | 400000 | COc1cnc(C(=O)Nc2ccc3c(c2)[C@@]2(CCOC(N)=N2)c2cc(C4=CCOCC4)nc(F)c2O3)cn1 [Example 65, N-((5S)-2′-amino-3-(3,6-dihydro-2H-pyran-4-yl)-1-fluoro-5′,6′-dihydrospiro[chromeno[2,3-c]pyridine-5,4′-[1,3]oxazin]-7-yl)-5-methoxy-2-pyrazinecarboxamide] | 83 | 71
4 | 0.6 | 0.2 | 362000 | Cc1nc(C(=O)Nc2ccc3c(c2)[C@@]2(CCOC(N)=N2)c2cc(-c4cncc(F)c4)nc(F)c2O3)cs1 [Example 88, N-((5S)-2′-amino-1-fluoro-3-(5-fluoro-3-pyridinyl)-5′,6′-dihydrospiro[chromeno[2,3-c]pyridine-5,4′-[1,3]oxazin]-7-yl)-2-methyl-1,3-thiazole-4-carboxamide] | 49 | 27
5 | 2.5 | 0.8 | 569000 | COc1ccc(C(=O)Nc2ccc3c(c2)[C@@]2(CCSC(N)=N2)c2cc(C4=CCCOC4)nc(F)c2O3)nc1 [Example 111, N-((5S)-2′-amino-3-(5,6-dihydro-2H-pyran-3-yl)-1-fluoro-5′,6′-dihydrospiro[chromeno[2,3-c]pyridine-5,4′-[1,3]thiazin]-7-yl)-5-methoxy-2-pyridinecarboxamide] | 76 | 58
6 | 3 | 0.5 | 400000 | NC1=N[C@@]2(CCO1)c1cc(NC(=O)c3ccc(Cl)cn3)ccc1Oc1cnc(C3=CCCOC3)cc12 [Example 59, N-((5S)-2′-amino-3-(5,6-dihydro-2H-pyran-3-yl)-5′,6′-dihydrospiro[chromeno[2,3-c]pyridine-5,4′-[1,3]oxazin]-7-yl)-5-chloro-2-pyridinecarboxamide] | 57 | 50
7 | 1.4 | 0.1 | 400000 | NC1=N[C@@]2(CCO1)c1cc(NC(=O)c3ccc(Cl)cn3)ccc1Oc1c2cc(C2=CCOCC2)nc1F [Example 63, N-((5S)-2′-amino-3-(3,6-dihydro-2H-pyran-4-yl)-1-fluoro-5′,6′-dihydrospiro[chromeno[2,3-c]pyridine-5,4′-[1,3]oxazin]-7-yl)-5-chloro-2-pyridinecarboxamide] | 80 | 75
8 | 2 | 0.5 | > 400000 | NC1=N[C@@]2(CCO1)c1cc(NC(=O)c3ccc(Cl)cn3)ccc1Oc1c2cc(C2=CCCOC2)nc1F [Example 39, N-((5S)-2′-amino-3-(5,6-dihydro-2H-pyran-3-yl)-1-fluoro-5′,6′-dihydrospiro[chromeno[2,3-c]pyridine-5,4′-[1,3]oxazin]-7-yl)-5-chloro-2-pyridinecarboxamide] | 85 | 80
9 | 1.8 | 0.9 | 400000 | COc1cnc(C(=O)Nc2ccc3c(c2)[C@@]2(CCOC(N)=N2)c2cc(-c4ccnc(F)c4)nc(F)c2O3)cn1 [Example 92, N-((5S)-2′-amino-1-fluoro-3-(2-fluoro-4-pyridinyl)-5′,6′-dihydrospiro[chromeno[2,3-c]pyridine-5,4′-[1,3]oxazin]-7-yl)-5-methoxy-2-pyrazinecarboxamide] | 79 | 70
10 | 1.3 | 0.6 | 400000 | COc1cnc(C(=O)Nc2ccc3c(c2)[C@@]2(CCOC(N)=N2)c2cc(-c4cncc(F)c4)nc(F)c2O3)cn1 [Example 70, N-((5S)-2′-amino-1-fluoro-3-(5-fluoro-3-pyridinyl)-5′,6′-dihydrospiro[chromeno[2,3-c]pyridine-5,4′-[1,3]oxazin]-7-yl)-5-methoxy-2-pyrazinecarboxamide] | 70 | 59
11 | 6.8 | 1.5 | 963000 | COc1cnc(C(=O)Nc2ccc3c(c2)[C@@]2(CCOC(N)=N2)c2cc(C4CC4)ncc2O3)cn1 [Example 80, N-((5S)-2′-amino-3-cyclopropyl-5′,6′-dihydrospiro[chromeno[2,3-c]pyridine-5,4′-[1,3]oxazin]-7-yl)-5-methoxy-2-pyrazinecarboxamide] | 82 | 80
12 | 1.6 | 1.4 | 160000 | COc1cnc(C(=O)Nc2ccc3c(c2)[C@@]2(CCSC(N)=N2)c2cc(C4=CCOCC4)nc(F)c2O3)cn1 [Example 67, N-((5S)-2′-amino-3-(3,6-dihydro-2H-pyran-4-yl)-1-fluoro-5′,6′-dihydrospiro[chromeno[2,3-c]pyridine-5,4′-[1,3]thiazin]-7-yl)-5-methoxy-2-pyrazinecarboxamide] | 66 | 58
13 | 1 | 0.6 | – | NC1=N[C@@]2(CCS1)c1cc(NC(=O)c3ccc(F)cn3)ccc1Oc1c2cc(C2=CCOCC2)nc1F [Example 116, N-((5S)-2′-amino-3-(3,6-dihydro-2H-pyran-4-yl)-1-fluoro-5′,6′-dihydrospiro[chromeno[2,3-c]pyridine-5,4′-[1,3]thiazin]-7-yl)-5-fluoro-2-pyridinecarboxamide] | 73 | 56
14 | 10 | 1.9 | – | CC(C)(C)C#Cc1cc2c(cn1)Oc1ccc(NC(=O)c3ccc(Cl)cn3)cc1[C@@]21CCOC(N)=N1 [Example 82, N-((5S)-2′-amino-3-(3,3-dimethyl-1-butyn-1-yl)-5′,6′-dihydrospiro[chromeno[2,3-c]pyridine-5,4′-[1,3]oxazin]-7-yl)-5-chloro-2-pyridinecarboxamide] | 67 | 42
